In patent US10626112B2, “Heterocyclic sulfonamide derivative and medicine comprising same” (EA PHARMA CO., LTD., priority 2014, dated 2020):

Target: human TRPA1 (Homo sapiens (Human), UniProt O75762)
Test: Measurement of TRPA1 antagonist activity (1): intracellular calcium increase
Assay type: cell-based
Conditions: 293T cells transfected with human TRPA1 expression plasmid; allylisothiocyanate 20 μM stimulation; intracellular calcium fluorescence; read-out: hTRPA1 IC50
How it was run: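 HEK293T cells transiently transfected with full-length human TRPA1, loaded with Calcium4 dye in HBSS/20 mM HEPES pH 7.2. Test compound preincubated 10 min, then allylisothiocyanate added at 20 μM final and fluorescence change followed for 5 min. IC50 from sigmoid fit of percent inhibition relative to agonist and buffer controls.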

Sequence of human TRPA1 (O75762 whole entry): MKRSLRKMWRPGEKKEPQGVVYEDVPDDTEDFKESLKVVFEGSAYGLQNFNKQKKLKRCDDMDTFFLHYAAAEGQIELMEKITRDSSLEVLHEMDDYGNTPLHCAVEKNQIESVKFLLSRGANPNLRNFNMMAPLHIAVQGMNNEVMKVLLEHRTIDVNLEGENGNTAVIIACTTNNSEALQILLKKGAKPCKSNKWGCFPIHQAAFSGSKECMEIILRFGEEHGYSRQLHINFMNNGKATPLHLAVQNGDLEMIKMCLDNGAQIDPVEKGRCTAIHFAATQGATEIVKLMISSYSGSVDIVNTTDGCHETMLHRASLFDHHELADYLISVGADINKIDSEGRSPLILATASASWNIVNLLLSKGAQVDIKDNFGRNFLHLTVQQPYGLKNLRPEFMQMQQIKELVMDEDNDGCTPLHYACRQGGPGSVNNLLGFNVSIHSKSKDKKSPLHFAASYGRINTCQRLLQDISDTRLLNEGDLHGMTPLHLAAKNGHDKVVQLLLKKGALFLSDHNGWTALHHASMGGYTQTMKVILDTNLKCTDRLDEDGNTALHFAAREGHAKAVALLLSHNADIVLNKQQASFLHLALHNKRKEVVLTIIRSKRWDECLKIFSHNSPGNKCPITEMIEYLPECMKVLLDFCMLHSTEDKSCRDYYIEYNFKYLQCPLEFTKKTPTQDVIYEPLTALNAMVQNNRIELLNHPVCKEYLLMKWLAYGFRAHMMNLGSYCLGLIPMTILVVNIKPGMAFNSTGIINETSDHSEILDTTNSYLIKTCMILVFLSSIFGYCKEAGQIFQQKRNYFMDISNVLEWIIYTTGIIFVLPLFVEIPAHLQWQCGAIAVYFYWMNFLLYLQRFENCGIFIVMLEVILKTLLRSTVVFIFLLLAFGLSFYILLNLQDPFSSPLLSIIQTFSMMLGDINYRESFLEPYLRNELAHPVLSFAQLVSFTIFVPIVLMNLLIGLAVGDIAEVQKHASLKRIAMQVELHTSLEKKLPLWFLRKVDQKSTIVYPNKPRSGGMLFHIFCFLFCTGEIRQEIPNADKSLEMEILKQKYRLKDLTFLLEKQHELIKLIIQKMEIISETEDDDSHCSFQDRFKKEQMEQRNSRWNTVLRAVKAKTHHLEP

Compound | IC50 [nM]
O=C(NCc1cccc(OCc2ccnc(C(F)(F)F)c2)c1)[C@@H]1CCCN1S(=O)(=O)c1cc2ccccc2o1 [Example 7] | 5.4
O=C(NCc1ccc(O)c(-c2ccc(C(F)(F)F)cn2)c1)[C@@H]1CCCN1S(=O)(=O)c1cc2cnccc2o1 [Example 273, (2S)-1-furo[3,2-c]pyridin-2-ylsulfonyl-N-[[4-hydroxy-3-[5-(trifluoromethyl)-2-pyridyl]phenyl]methyl]-pyrrolidine-2-carboxamide] | 1.6
O=C(NCc1cc(-c2ccc(C(F)(F)F)cc2)ncn1)[C@@H]1[C@@H](O)CCN1S(=O)(=O)c1cc2ccccc2o1 [Example 226, (2S,3S)-1-(benzofuran-2-ylsulfonyl)-3-hydroxy-N-[[6-[4-(trifluoromethyl)-phenyl]pyrimidin-4-yl]methyl]pyrrolidine-2-carboxamide] | 25
O=C(NCc1cccc(OCc2cccc(C(F)(F)F)n2)c1)[C@@H]1CCCN1S(=O)(=O)c1cc2cc(F)ccc2o1 [Example 25, (2S)-1-(5-fluorobenzofuran-2-yl)sulfonyl-N-[[3-[[6-(trifluoromethyl)-2-pyridyl]methoxy]phenyl]-methyl]pyrrolidine-2-carboxamide] | 11
O=C(NCc1cc(-c2ccc(C(F)(F)F)cn2)ccn1)[C@@H]1C[C@@H](O)CN1S(=O)(=O)c1cc2cc(F)ccc2o1 [Example 256, (2S,4R)-1-(5-fluorobenzofuran-2-yl)sulfonyl-4-hydroxy-N-[[4-[5-(trifluoromethyl)-2-pyridyl]-2-pyridyl]methyl]pyrrolidine-2-carboxamide] | 91
C[C@H](NS(=O)(=O)c1cc2cc(F)ccc2o1)C(=O)NCc1cc(-c2ccc(C(F)(F)F)cn2)c(O)cn1 [Example 255, (2S)-2-[(5-fluorobenzofuran-2-yl)sulfonylamino]-N-[[5-hydroxy-4-[5-(trifluoromethyl)-2-pyridyl]-2-pyridyl]methyl]propanamide] | 17
O=C(NCc1cccc(-c2cnc(C(F)(F)F)nc2)c1)[C@@H]1CCCN1S(=O)(=O)c1cc2ccccc2o1 [Example 195, (2S)-1-(benzofuran-2-ylsulfonyl)-N-[[3-[2-(trifluoromethyl)pyrimidin-5-yl]phenyl]-methyl]pyrrolidine-2-carboxamide] | 2.5
C[C@H](NS(=O)(=O)c1cc2cc(F)ccc2o1)C(=O)NCc1ccc(O)c(-c2ccc(C(F)(F)F)cn2)c1 [Example 252, (2S)-2-[(5-fluorobenzofuran-2-yl)sulfonylamino]-N-[[4-hydroxy-3-[5-(trifluoromethyl)-2-pyridyl]-phenyl]methyl]propanamide] | 14
O=C(NCc1cccc(/C=C/c2ccc(C(F)(F)F)cc2)c1)[C@@H]1CCCN1S(=O)(=O)c1cc2ccccc2o1 [Example 317, (2S)-1-(benzofuran-2-ylsulfonyl)-N-[[3-[(E)-2-[4-(trifluoromethyl)phenyl]vinyl]phenyl]methyl]pyrrolidine-2-carboxamide] | 31
C[C@H](NS(=O)(=O)c1cc2cnccc2o1)C(=O)NCc1cc(-c2ccc(OC(F)(F)F)cc2)ncn1 [Example 305, (2S)-2-(furo[3,2-c]pyridin-2-ylsulfonylamino)-N-[[6-[4-(trifluoromethoxy)phenyl]pyrimidin-4-yl]methyl]propanamide] | 26
O=C(NCc1cccc(OCc2ccsc2)c1)[C@@H]1CCCN1S(=O)(=O)c1cc2ccccc2o1 [Example 6, (2S)-1-(benzofuran-2-ylsulfonyl)-N-[[3-(3-thienylmethoxy)phenyl]methyl]pyrrolidine-2-carboxamide] | 7.5
O=C(NCc1cccc(-c2ccc(C(F)(F)F)cn2)c1)[C@@H]1[C@@H](O)CCN1S(=O)(=O)c1cc2cc(F)ccc2o1 [Example 94, (2S,3S)-1-(5-fluorobenzofuran-2-yl)sulfonyl-3-hydroxy-N-[[3-[5-(trifluoromethyl)-2-pyridyl]phenyl]methyl]pyrrolidine-2-carboxamide] | 11
O=C(NCc1cc(F)cc(OCc2ccccc2)c1)[C@@H]1CCCN1S(=O)(=O)c1cc2cc(F)ccc2o1 [Example 34, (2S)-N-[(3-benzyloxy-5-fluoro-phenyl)methyl]-1-(5-fluorobenzofuran-2-yl)sulfonyl-pyrrolidine-2-carboxamide] | 1.6
CN(C)c1ccc(-c2cc(CNC(=O)[C@@H]3CCCN3S(=O)(=O)c3cc4ccccc4o3)ccn2)cn1 [Example 125, (2S)-1-(benzofuran-2-ylsulfonyl)-N-[[2-[6-(dimethylamino)-3-pyridyl]-4-pyridyl]methyl]pyrrolidine-2-carboxamide] | 240
CC(C)(C)c1ccc(-c2ccnc(CNC(=O)[C@@H]3CCCN3S(=O)(=O)c3cc4ccccc4o3)c2)cc1 [Example 285, (2S)-1-(benzofuran-2-ylsulfonyl)-N-[[4-(4-tert-butylphenyl)-2-pyridyl]methyl]pyrrolidine-2-carboxamide] | 30
O=C(NCc1cccc(OCc2ccccn2)c1)[C@@H]1CCCN1S(=O)(=O)c1cc2cc(F)ccc2o1 [Example 15, (2S)-1-(5-fluorobenzofuran-2-yl)sulfonyl-N-[[3-(2-pyridylmethoxy)phenyl]-methyl]pyrrolidine-2-carboxamide] | 100

Compound | IC50 [nM]
O=C(NCc1ccnc(-c2ccc(OCC(F)(F)F)cc2)c1)[C@@H]1CCCN1S(=O)(=O)c1cc2ccccc2o1 [Example 204, (2S)-1-(benzofuran-2-ylsulfonyl)-N-[[2-[4-(2,2,2-trifluoroethoxy)phenyl]-4-pyridyl]methyl]pyrrolidine-2-carboxamide] | 35
(2S)-1-(5-fluorobenzofuran-2-yl)sulfonyl-N-[[3-[2-methyl-5-(trifluoromethyl)pyrazol-3-yl]phenyl]methyl]pyrrolidine-2-carboxamide [Example 164] | 7.1
C[C@H](NS(=O)(=O)c1cc2cc(F)ccc2o1)C(=O)NCc1cc(-c2cnc(C(F)(F)F)nc2)ccn1 [Example 241, (2S)-2-[(5-fluorobenzofuran-2-yl)sulfonylamino]-N-[[4-[2-(trifluoromethyl)pyrimidin-5-yl]-2-pyridyl]methyl]propanamide] | 75
O=C(NCc1cc(-c2ccc(C(F)(F)F)nc2)ncn1)[C@@H]1CCCN1S(=O)(=O)c1cc2ccccc2o1 [Example 205, (2S)-1-(benzofuran-2-ylsulfonyl)-N-[[6-[6-(trifluoromethyl)-3-pyridyl]pyrimidin-4-yl]methyl]pyrrolidine-2-carboxamide] | 4
O=C(NCc1cncc(-c2ccc(C(F)(F)F)nc2)c1)[C@@H]1CCCN1S(=O)(=O)c1cc2ccccc2o1 [Example 86, (2S)-1-(benzofuran-2-ylsulfonyl)-N-[[5-[6-(trifluoromethyl)-3-pyridyl]-3-pyridyl]methyl]pyrrolidine-2-carboxamide] | 20
O=C(NCc1ccnc(-c2ccccc2O)c1)[C@@H]1CCCN1S(=O)(=O)c1cc2ccccc2o1 [Example 120, (2S)-1-(benzofuran-2-ylsulfonyl)-N-[[2-(2-hydroxyphenyl)-4-pyridyl]methyl]pyrrolidine-2-carboxamide] | 180
O=C(NCc1cccc(OCc2ccc(C(F)(F)F)cc2)c1)[C@@H]1C=CCN1S(=O)(=O)c1cc2ccccc2o1 [Example 44, (2S)-1-(benzofuran-2-ylsulfonyl)-N-[[3-[[4-(trifluoromethyl)phenyl]methoxy]-phenyl]methyl]-2,5-dihydropyrrole-2-carboxamide] | 1.7
O=C(NCc1ccc(-c2ccccc2)cc1)[C@@H]1CCCN1S(=O)(=O)c1cc2cc(F)ccc2o1 [Example 76, (2S)-1-(5-fluorobenzofuran-2-yl)sulfonyl-N-[(4-phenylphenyl)methyl]pyrrolidine-2-carboxamide] | 47
O=C(NCc1cc(/C=C/C2CC2)ccn1)[C@@H]1CCCN1S(=O)(=O)c1cc2ccccc2o1 [Example 282, (2S)-1-(benzofuran-2-ylsulfonyl)-N-[[4-[(E)-2-cyclopropylvinyl]-2-pyridyl]methyl]pyrrolidine-2-carboxamide] | 250
O=C(NCc1ccnc(-c2ccc(C(F)(F)F)cc2O)c1)[C@@H]1CCCN1S(=O)(=O)c1cc2ccccc2o1 [Example 123, (2S)-1-(benzofuran-2-ylsulfonyl)-N-[[2-[2-hydroxy-4-(trifluoromethyl)phenyl]-4-pyridyl]methyl]pyrrolidine-2-carboxamide] | 2.6
N#Cc1ccc(COc2cc(F)cc(CNC(=O)[C@@H]3CCCN3S(=O)(=O)c3cc4cc(F)ccc4o3)c2)cc1 [Example 36, (2S)-N-[[3-[(4-cyanophenyl)methoxy]-5-fluoro-phenyl]methyl]-1-(5-fluorobenzofuran-2-yl)sulfonyl-pyrrolidine-2-carboxamide] | 1.5
O=C(NCc1cccc(-c2ccc(C(F)(F)F)nc2)c1)[C@@H]1CCCN1S(=O)(=O)c1cc2c(F)cccc2o1 [Example 92, (2S)-1-(4-fluorobenzofuran-2-yl)sulfonyl-N-[[3-[6-(trifluoromethyl)-3-pyridyl]phenyl]methyl]pyrrolidine-2-carboxamide] | 2.2
O=C(NCc1cccc(OCc2ccc(C(F)(F)F)cc2)c1)[C@@H]1C[C@@H](O)CN1S(=O)(=O)c1cc2ccccc2o1 [Example 46, (2S,4R)-1-(benzofuran-2-ylsulfonyl)-4-hydroxy-N-[[3-[[4-(trifluoromethyl)phenyl]methoxy]-phenyl]methyl]pyrrolidine-2-carboxamide] | 130
O=C(NCc1cccc(OCc2ccc(C(F)(F)F)nc2)c1)[C@@H]1CCCN1S(=O)(=O)c1cc2cc(F)ccc2o1 [Example 20, (2S)-1-(5-fluorobenzofuran-2-yl)sulfonyl-N-[[3-[[6-(trifluoromethyl)-3-pyridyl]methoxy]phenyl]-methyl]pyrrolidine-2-carboxamide] | 1.4
O=C(NCc1cccc(OCc2ccnc(C(F)(F)F)c2)c1)[C@@H]1CCCN1S(=O)(=O)c1cc2cnccc2o1 [Example 274, (2S)-1-furo[3,2-c]pyridin-2-ylsulfonyl-N-[[3-[[2-(trifluoromethyl)-4-pyridyl]methoxy]phenyl]-methyl]pyrrolidine-2-carboxamide] | 9.8
